According to PubChem BioAssay (NCI):
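Five compound concentrations were applied to cells in 96-well plates for 48 hours; endpoints were derived by simple linear interpolation of the resulting dose-response curve. Abbreviation: GI50, concentration required for 50% inhibition of growth. TGI: total growth inhibition.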

What was measured:
Assay in all cases: growth of human tumour cells (NCI), 48 h
M14 melanoma = tested on: M14 melanoma
SK-MEL-28 melanoma = tested on: SK-MEL-28 melanoma
TK-10 renal = tested on: TK-10 renal
U251 CNS = tested on: U251 CNS
SF-539 CNS = tested on: SF-539 CNS
ACHN renal = tested on: ACHN renal
EKVX NSCLC = tested on: EKVX NSCLC
HCC-2998 colon = tested on: HCC-2998 colon
SN12C renal = tested on: SN12C renal
HS 578T breast = tested on: HS 578T breast

CCOC(=O)C1=C(C(=O)OCC)SC2(S1)C(C(=O)OCC)=C(C(=O)OCC)Sc1c2ssc1=O
TGI (M14 melanoma): 4.94 µM
TGI (SK-MEL-28 melanoma): 3.93 µM
TGI (TK-10 renal): 3.16 µM
TGI (U251 CNS): 3.95 µM
TGI (SF-539 CNS): 2.4 µM
TGI (ACHN renal): 3.11 µM
TGI (EKVX NSCLC): 5.78 µM
TGI (HCC-2998 colon): 5.89 µM
TGI (SN12C renal): 2.48 µM
TGI (HS 578T breast): 5.41 µM

O=C(O)c1cc2ccccc2c(N=Nc2ccc(S(=O)(=O)Nc3ccccn3)cc2)c1O
TGI (M14 melanoma): > 100 µM
TGI (SK-MEL-28 melanoma): > 100 µM
TGI (TK-10 renal): > 100 µM
TGI (U251 CNS): > 100 µM
TGI (SF-539 CNS): > 100 µM
TGI (ACHN renal): > 100 µM
TGI (EKVX NSCLC): > 100 µM
TGI (HCC-2998 colon): > 100 µM
TGI (SN12C renal): > 100 µM
TGI (HS 578T breast): > 100 µM

Cc1c(-c2ccccc2)c(C#N)c2nnn(-c3ccc(Cl)cc3)c(=O)n12
TGI (M14 melanoma): > 100 µM
TGI (SK-MEL-28 melanoma): > 100 µM
TGI (TK-10 renal): > 100 µM
TGI (U251 CNS): 27.3 µM
TGI (SF-539 CNS): > 100 µM
TGI (ACHN renal): > 100 µM
TGI (EKVX NSCLC): > 100 µM
TGI (HCC-2998 colon): > 100 µM
TGI (SN12C renal): > 100 µM
TGI (HS 578T breast): > 100 µM

NC1CCN(c2nc3ccccc3c3c2CCCC3)CC1
TGI (M14 melanoma): 3.84 µM
TGI (SK-MEL-28 melanoma): 10.6 µM
TGI (TK-10 renal): 23.2 µM
TGI (U251 CNS): 14.8 µM
TGI (SF-539 CNS): 11.8 µM
TGI (ACHN renal): 22.4 µM
TGI (EKVX NSCLC): 21.4 µM
TGI (HCC-2998 colon): 3.2 µM
TGI (SN12C renal): 21.5 µM
TGI (HS 578T breast): > 100 µM

COC(=O)c1c(O)ccc2c1c1c(n2CCc2ccc(OC)c(OC)c2)C(=O)c2ccccc2C1=O
TGI (M14 melanoma): 31 µM
TGI (SK-MEL-28 melanoma): 24.8 µM
TGI (TK-10 renal): 57.1 µM
TGI (U251 CNS): 43.2 µM
TGI (SF-539 CNS): 28.1 µM
TGI (ACHN renal): 35.9 µM
TGI (EKVX NSCLC): 40.8 µM
TGI (HCC-2998 colon): 15.7 µM
TGI (SN12C renal): 50.9 µM
TGI (HS 578T breast): 37.2 µM

O=C1N[C@H]2C(=O)c3c(Br)sc(Br)c3[C@H]2O1
TGI (M14 melanoma): 10.4 µM
TGI (SK-MEL-28 melanoma): 10.7 µM
TGI (TK-10 renal): 41 µM
TGI (U251 CNS): 8.87 µM
TGI (SF-539 CNS): 32.1 µM
TGI (ACHN renal): 18.1 µM
TGI (EKVX NSCLC): 13 µM
TGI (HCC-2998 colon): 24.2 µM
TGI (SN12C renal): 11.4 µM
TGI (HS 578T breast): 58.6 µM

Cc1[nH]c2ncn3[nH]c(=S)nc3c2c1Cc1ccccc1
TGI (M14 melanoma): > 100 µM
TGI (SK-MEL-28 melanoma): > 100 µM
TGI (TK-10 renal): > 100 µM
TGI (U251 CNS): > 100 µM
TGI (SF-539 CNS): > 100 µM
TGI (ACHN renal): > 100 µM
TGI (EKVX NSCLC): > 100 µM
TGI (HCC-2998 colon): > 100 µM
TGI (SN12C renal): > 100 µM
TGI (HS 578T breast): > 100 µM

O=C1Nc2cccc(Cl)c2/C1=C\c1cccnc1
TGI (M14 melanoma): 19.6 µM
TGI (SK-MEL-28 melanoma): > 100 µM
TGI (TK-10 renal): 34.7 µM
TGI (U251 CNS): 35.2 µM
TGI (SF-539 CNS): 39.7 µM
TGI (ACHN renal): > 100 µM
TGI (EKVX NSCLC): 93.1 µM
TGI (HCC-2998 colon): 7.86 µM
TGI (SN12C renal): 20.5 µM
TGI (HS 578T breast): 91.9 µM

CC1(C)CN(CC(=O)O)CC(Cc2ccc(OCC(=O)O)cc2)N(CC(=O)O)CC(C)(C)SS1 (stereo not drawn)
TGI (M14 melanoma): > 100 µM
TGI (SK-MEL-28 melanoma): > 100 µM
TGI (TK-10 renal): > 100 µM
TGI (U251 CNS): > 100 µM
TGI (SF-539 CNS): > 100 µM
TGI (ACHN renal): > 100 µM
TGI (EKVX NSCLC): > 100 µM
TGI (HCC-2998 colon): > 100 µM
TGI (SN12C renal): > 100 µM
TGI (HS 578T breast): > 100 µM

COc1cc(/C=N/NC(=O)c2c(Cl)c(Cl)c(Cl)c(Cl)c2-c2nc3ccc(C(=O)c4ccccc4)cc3[nH]2)ccc1O
TGI (M14 melanoma): > 100 µM
TGI (SK-MEL-28 melanoma): > 100 µM
TGI (TK-10 renal): > 100 µM
TGI (U251 CNS): > 100 µM
TGI (SF-539 CNS): > 100 µM
TGI (ACHN renal): > 100 µM
TGI (EKVX NSCLC): > 100 µM
TGI (SN12C renal): > 100 µM
TGI (HS 578T breast): > 100 µM

O=C(CSCC(=O)N/N=C\c1ccc(F)cc1F)N/N=C\c1ccc(F)cc1F
TGI (M14 melanoma): > 100 µM
TGI (SK-MEL-28 melanoma): > 100 µM
TGI (TK-10 renal): > 100 µM
TGI (U251 CNS): > 100 µM
TGI (SF-539 CNS): > 100 µM
TGI (ACHN renal): > 100 µM
TGI (EKVX NSCLC): > 100 µM
TGI (HCC-2998 colon): > 100 µM
TGI (SN12C renal): > 100 µM
TGI (HS 578T breast): > 100 µM

CC(C)CNC1=NCC(C)S1 (stereo not drawn)
TGI (M14 melanoma): > 100 µM
TGI (SK-MEL-28 melanoma): > 100 µM
TGI (TK-10 renal): > 100 µM
TGI (U251 CNS): > 100 µM
TGI (SF-539 CNS): > 100 µM
TGI (ACHN renal): > 100 µM
TGI (EKVX NSCLC): > 100 µM
TGI (HCC-2998 colon): > 100 µM
TGI (HS 578T breast): > 100 µM

Cc1ncc(C(=O)Nc2ccc(CN3CCN(C)CC3)c(C(F)(F)F)c2)cc1C#Cc1cnc(N)c2ccc(C#N)cc12
GI50 (TK-10 renal): 0.0572 µM
TGI (TK-10 renal): 2.82 µM
GI50 (SF-539 CNS): 0.0796 µM
TGI (SF-539 CNS): 1.45 µM
GI50 (EKVX NSCLC): 0.0827 µM
TGI (EKVX NSCLC): 29.6 µM
GI50 (HCC-2998 colon): 2.29 µM
TGI (HCC-2998 colon): 24.7 µM
GI50 (SN12C renal): < 0.0124 µM
TGI (SN12C renal): 5.01 µM

c1ccc(/C(=N\Nc2nc3ccccc3[nH]2)c2ccccn2)cc1
TGI (M14 melanoma): 1.89 µM
TGI (SK-MEL-28 melanoma): 12.8 µM
TGI (TK-10 renal): 3.82 µM
TGI (U251 CNS): > 28.5 µM
TGI (SF-539 CNS): 1.64 µM
TGI (ACHN renal): 2 µM
TGI (EKVX NSCLC): 2.96 µM
TGI (HCC-2998 colon): 4.1 µM
TGI (SN12C renal): > 21.1 µM
TGI (HS 578T breast): 51.7 µM

C[C@]12CC[C@H]3[C@@H](CC=C4C[C@@H](O)CC[C@@]43C)[C@@H]1C/C(=C\c1ccncc1)[C@@H]2O
TGI (M14 melanoma): 40.6 µM
TGI (SK-MEL-28 melanoma): 51.3 µM
TGI (TK-10 renal): > 100 µM
TGI (U251 CNS): 33.9 µM
TGI (SF-539 CNS): 45.9 µM
TGI (ACHN renal): 50.5 µM
TGI (EKVX NSCLC): 49.1 µM
TGI (HCC-2998 colon): > 100 µM
TGI (SN12C renal): 34.8 µM
TGI (HS 578T breast): > 100 µM
